We go through one molecule from PMC11079064, “Discovery of a brain penetrant small molecule antagonist targeting LPA1 receptors to reduce neuroinflammation and promote remyelination in multiple sclerosis” (Scientific Reports, 2024).

Entries after “also recorded” stand apart in the source; their conditions may differ. Read-outs that look alike come from different tables or passages of the source.

One test deals with rat OPCs. Put plainly: OPC-macrophage Transwell co-culture. It is filed as cell-based. The following applies: in presence of macrophages, 300 nM. Here is the method: Following PDGF withdrawal, we observed a 41% decrease in the number of MBP^+ oligodendrocytes when co-cultured with macrophages.
OPCs were isolated as previously described. Cells were plated on the membrane layer of poly-L-lysine (Millipore Sigma, St. Louis, MO) coated Transwell culture plates (VWR, Radnor, PA) at a seeding density of 1 × 10^6 cells per well. Transwell culture plates have microporous membrane which allows for factors to flow between the top and bottom chamber. This permits us to minimize direct contact between the macrophage and OPCs while allowing for a constant, renewable source unlike conditioned media which can be depleted. […]
Isolation of macrophages. […] Differentiated oligodendrocytes were detected with a rat monoclonal antibody to MBP (Millipore Sigma, St. Louis, MO) and OPCs were detected with a rabbit monoclonal antibody to PDGFRα (Santa Cruz Biotechnology, Dallas, TX). Macrophages were detected with CD68 (Santa Cruz Biotechnology, Dallas, TX). […] Images were acquired using a 20× objective, each well was read in a 5 × 5 matrix. Data were analyzed using GraphPad Prism (La Jolla, CA) and statistical significance was determined by ANOVA.

The subject of a further test is microglia. Put plainly: LPA-induced microglial activation in hippocampal slices. It is filed as cell-based, mouse. As to conditions: 3 µM, 10 µM LPA. How it is done: Microglial activation was then triggered by the addition of 10 µM LPA, slices incubated for 3 additional hours, then fixed. Slices were immunostained against IBA1 and microglial perimeters were measured as a mean of differentiating between ramified/resting versus rounded/activated microglia.
Brains were harvested from mice (postnatal day 20, Charles River). […] 400 µm thick coronal slices were cut on a McIlwain tissue chopper and returned to dissection media and separated manually. […] Slices were incubated for 2 h at 37 °C (4 slices per condition). Microglial activation was initiated by adding LPA (18:1, Avanti Polar Lipids) to a final concentration of 10 µM and incubated for 3 h. Slices were then fixed in formalin and for 2 h.
For immunohistochemistry, slices were washed for 3 × 15 min in 0.5% Triton-X100 and DPBS. Slices were then stained using IBA-1 antibody (Thermo Scientific) in 10% normal goat serum with 0.5% Triton-X100 in DPBS overnight on a rocker. Slices were then washed in 0.5% Triton-X100 in DPBS 3 × 15 min. Goat anti-mouse Alexa 564 (1:500, Invitrogen, Carlsbad, CA) and […] (Invitrogen, Carlsbad, CA) were diluted in DPBS with 0.5% Triton-X100 and incubated for 2h. Slices were washed 3 × 15 min in DPBS with 0.5% Triton-X100, mounted with Fluoromount and imaged on a Nikon A1R confocal microscope.

Another test relates to rat oligodendrocytes. Put plainly: Oligodendrocyte protection assay (TNFα/IFNγ insult). It is filed as cell-based. The following applies: TNFα and IFNγ insult. From the text: TNFα and IFNγ are two cytokines that, while not normally expressed in the CNS, are elevated in MS[29]. These cytokines can be secreted by both macrophages and microglia[30],[31]. Receptors for these cytokines (TNFR1, TNFR2, and IFNGR) are expressed in oligodendrocytes. Of note, TNFR1 and 2 have been found on oligodendrocytes bordering MS lesions[23],[32], [33]. Further, although receptor expression for these cytokines on OPCs is unknown, addition of either of these cytokines impact differentiation in isolated OPC cultures[28],[34]. Cultured rat OPCs were differentiated with T3 for 24 h then treated with both TNFα and IFNγ Upon cytokine addition, we observed significant cell death consistent with previous observations (Fig. 6C, left[22],[35]–[37]).
OPC Assay: OPCs were plated in poly-L-lysine (Millipore Sigma, St. Louis, MO) coated 96-well Viewplates™ (Perkin Elmer, Boston, MA) at a seeding density of […] per well. Cells were maintained in media composed of DMEM (Invitrogen, Carlsbad, CA) supplemented with B27 (Invitrogen, Carlsbad, CA), N2 (Invitrogen, Carlsbad, CA), penicillin–streptomycin (Invitrogen, Carlsbad, CA), N-acetylcysteine (Millipore Sigma, St. Louis, MO), forskolin (Millipore Sigma, St. Louis, MO), and 25 ng/ml PDGF-AA (Peprotech, Cranbury, New Jersey) for 24 h at 37°, 5% CO2. Compounds were diluted 10× at a concentration range of 0.001–3 µM. […]

By EC50 is commonly meant the concentration needed to bring the measured effect to its halfway point. Take `COc1ccc(NC(=O)N(c2ccccc2C(C)C)C2CCC(C(=O)O)CC2)c(OC(F)F)n1` (stereo not shown) [PIPE-791]: in the test with rat OPCs, the “increase in differentiation versus vehicle treated cultures” value was 2.1 fold. Moreover, the “effect on LPA-induced decrease in microglial perimeter length” value with microglia is recorded as “inhibited; also recorded: prevented”. The EC50 in the test on rat oligodendrocytes (data not shown, read-out: EC50 of total cellular viability with Alamar blue) stood at 39.6 nM; in the test on rat oligodendrocytes (read-out: EC50 of protection of MBP+ oligodendrocytes), 125 nM.
